How the values were obtained:
[1] = tested on: colon cancer cells (SW480); settings: SW480 tumors in nude mice; for effect on tumor / on sensitivity of tumor to doxorubicin: doxorubicin 2.5 mg/kg i.p. every 2 days for 5 weeks, agents daily; for death of animals during treatment: doxorubicin 2.5 mg/kg i.p., 6 mice per group
Experimental: The experiment was carried out using compound a in this example. Under sterile conditions, a suspension of colon cancer cells (SW480) in logarithmic growth phase (cell concentration was adjusted to 1×10^7/mL with physiological saline) was inoculated subcutaneously to 5 to 6 weeks old balb/c female nude mice on the right rear back, and each nude mice was inoculated at an amount of 0.3 ml, i.e. the number of cells contained was 3×10^6 per each mouse. 10 days later, subcutaneous transplanted tumor of 100-250 mm^3 appeared. The nude mice with tumor were randomly divided into several groups, each containing 6 mice: (1) control group; (2) doxorubicin group; (3) doxorubicin+amifostine; (4) doxorubicin+Celecoxib+intermediate II; (5) doxorubicin+intermediate I+intermediate II; (6) doxorubicin+low-dose compound a (6 mg/kg/day); (7) doxorubicin+high-dose compound a (15 mg/kg/day). Firstly, the following compounds were administered to each group of nude mice with tumor according to the following doses: intermediate I and intermediate II (3 mg/kg/day respectively), amifostine (400 mg/kg/day), Celecoxib (6 mg/kg/day). Except that amifostine was subcutaneously injected (30 minutes before irradiation), the other protective agents were administered by gavage. The above drugs were administered every day for 5 weeks continuously. 12 hours after the administration, doxorubicin (2.5 mg/kg) was injected intraperitoneally, and it was administered once every 2 days for 5 weeks. During the dosing period, the body weight of the nude mice was measured every two days with a precision electronic balance. The growth of the tumor and whether or not red and swelling and rupture occur were observed every day after inoculation. After tumor formation, the surface morphology and activity of the transplanted tumor were examined, and the longest diameter (a) and the shortest diameter (b) of the tumor nodules were measured every 3 days with a vernier caliper. […] 21 days after administration of doxorubicin, the tail vein blood of mice was collected to perform leukocyte count and blood biochemical index analysis. The tumor tissue and normal peripheral tissues were taken on the last day of treatment, and the content of the intermediate I therein was measured by HPLC (FIG. 9a). At the same time, paraffin sections were made, the occurrence of apoptosis was detected by terminal labeling (FIG. 9b), and the relative survival percentages of normal tissue and tumor tissue were calculated (the results are summarized in FIG. 9b).

peripheral leukocytes = test: Protection against blood cell (leukocyte) damage induced by paclitaxel; type: in vivo; settings: mice, paclitaxel; amifostine 400 mg/kg/day i.p.
Experimental: In this experiment, 10-week-old male mice (C57BL/6J) weighing about 20 grams were used as subjects, and 6 mice were taken as a group. The mice were divided into 5 groups: 1. Paclitaxel; 2. Paclitaxel+amifostine; 3. Paclitaxel+intermediate I+intermediate II; 4. paclitaxel+compound a; and 5. paclitaxel+compound b. Firstly, each group of mice was administered with a protective agent, and the specific amounts were as follows: compounds a and b: each 6 mg/kg/day (8.1 μM), amifostine: 400 mg/kg/day (1.5 mM), intermediate I+Intermediate II: each 3 mg/kg/day (8.1 μM). Except that amifostine was intraperitoneally injected (30 minutes before administering Paclitaxel, amifostine was administered), the other protective agents were administered by gavage (once a day, 25 times continuously). 12 hours after the compound a and the corresponding protective agents were administered, Paclitaxel was intraperitoneally injected (10 mg/kg/day, once every 3 days, 9 times continuously), and 7, 14, 21, 28 days later, blood of mice was drawn respectively. The number of leukocytes was analyzed.

mice (C57BL/6J) = test: Survival rate of mice irradiated by γ-rays; type: in vivo; settings: 30th day after 8.75 Gy γ-rays, 16 mice per group; for number of survived mice: intermediates each 3 mg/kg/day gavage; for survival rate: compounds 6 mg/kg/day gavage, amifostine 400 mg/kg/day i.p.
Experimental: In this experiment, 10-week-old male mice (C57BL/6J) weighing about 20 g were used as subjects, and 16 mice were taken as a group. The mice were divided into the following groups: 1. no γ-ray+no drug; 2. γ-ray+no drug; 3. γ-ray+amifostine; 4. γ-ray+intermediate I+intermediate II; 5. γ-ray+compound a; 6. γ-ray+compound b; and 7. γ-ray+compound d. Firstly, each group of mice was administered with a protective agent, and the specific amounts were as follows: compound a, b and d: 6 mg/kg/day (8.1 μM), amifostine: 400 mg/kg/day (1.5 mM), intermediate I+Intermediate II: each 3 mg/kg/day (8.1 μM). Except that amifostine was intraperitoneally injected (30 minutes before irradiation, amifostine was administered), the other protective agents were administered by gavage. 12 hours after administration, systemic irradiation was performed using cobalt 60γ-rays at a dose of 8.75Gy and a dose rate of 0.35 Gy/min for 25 minutes, with the radiation source 80 cm away from the mice. The mice were irradiated once, and continuously administered with drugs once daily for 10 days after irradiation. The number of survival mice was recorded. The percentage obtained by dividing the number of survival mice by the total number of mice in the experimental group (16 mice) is survival rate of mice, and the results are summarized in FIG. 7. […] It is noteworthy that in the experimental group using intermediate I+intermediate II, only one mouse is survived.

A549 cells = test: A549 transplanted tumors in nude mice, compound used alone; type: in vivo; settings: A549; cisplatin 5 mg/kg/week i.p.; compound a 5 and 25 mg/kg/day; intermediates 12.5 mg/kg/day each
Experimental: Except cisplatin (intraperitoneal injection, once a week), all compounds were administered by gavage, once a day for 5 weeks continuously.

COX-2 = biological target: T1, COX-2 (Rattus norvegicus, UniProt P35355); test: COX-2 activity assay (PGE2 in gastric mucosa, EIA) in LPS-treated rats; type: in vivo; settings: gavage, LPS 2.5 mg/kg-activated
T1 construct: from tissue; host or cells: rat gastric mucosa (LPS-treated rats, in vivo dosing)
T1 sequence (P35355 18-604): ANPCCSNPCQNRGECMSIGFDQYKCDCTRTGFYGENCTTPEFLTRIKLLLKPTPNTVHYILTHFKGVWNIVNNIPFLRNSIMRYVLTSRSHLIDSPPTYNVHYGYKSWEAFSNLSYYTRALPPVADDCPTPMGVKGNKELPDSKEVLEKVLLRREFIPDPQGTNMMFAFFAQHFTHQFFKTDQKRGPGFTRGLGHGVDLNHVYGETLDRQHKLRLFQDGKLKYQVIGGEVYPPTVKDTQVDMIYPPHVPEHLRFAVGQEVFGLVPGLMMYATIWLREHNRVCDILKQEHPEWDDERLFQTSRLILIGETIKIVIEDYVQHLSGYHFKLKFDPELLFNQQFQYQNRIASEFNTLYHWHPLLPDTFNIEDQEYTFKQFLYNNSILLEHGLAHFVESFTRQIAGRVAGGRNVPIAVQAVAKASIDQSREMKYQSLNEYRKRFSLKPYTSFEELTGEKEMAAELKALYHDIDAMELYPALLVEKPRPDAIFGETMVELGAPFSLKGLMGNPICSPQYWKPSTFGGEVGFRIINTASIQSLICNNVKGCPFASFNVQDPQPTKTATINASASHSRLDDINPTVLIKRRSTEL
Experimental: (2) COX-2 activity assay: The assay was similar to that of COX-1, except that LPS was injected intraperitoneally to rats at a dose of 2.5 mg/kg to activate COX-2 in this experiment. After administration, the content of PGE2 in gastric mucosa was measured using an enzyme-linked immunosorbent assay (EIA) kit (operated according to the instructions provided by the manufacturer) and converted to COX2 activity.
(§1) The percentage inhibition rate against COX-1 (FIG. 1a—gastric mucosa, FIG. 1b—myocardium) and COX-2 (FIG. 1c) and the IC50 values (Table 1a—gastric mucosa; Table 1b—myocardium) of each tested pharmaceutical compound were calculated from the above data.

COX-1 in gastric mucosa = biological target: T2, COX-1 in gastric mucosa (Rattus norvegicus, UniProt Q63921); test: COX-1 activity assay, gastric mucosa (thromboxane B2 EIA) after oral dosing of A23187-treated rats; type: in vivo; settings: for reduction of inhibition against COX-1 in gastric mucosal tissue compared with intermediate I: gavage 1, 3, 9 mg/kg/day, intermediate I 0.5 mg/kg, 6 h after dosing; for effect of inhibiting COX-1 in gastric mucosa: gavage, A23187-activated
T2 construct: from tissue; host or cells: rat gastric mucosa (in vivo dosing, tissue homogenate supernatant)
T2 sequence (Q63921 27-602): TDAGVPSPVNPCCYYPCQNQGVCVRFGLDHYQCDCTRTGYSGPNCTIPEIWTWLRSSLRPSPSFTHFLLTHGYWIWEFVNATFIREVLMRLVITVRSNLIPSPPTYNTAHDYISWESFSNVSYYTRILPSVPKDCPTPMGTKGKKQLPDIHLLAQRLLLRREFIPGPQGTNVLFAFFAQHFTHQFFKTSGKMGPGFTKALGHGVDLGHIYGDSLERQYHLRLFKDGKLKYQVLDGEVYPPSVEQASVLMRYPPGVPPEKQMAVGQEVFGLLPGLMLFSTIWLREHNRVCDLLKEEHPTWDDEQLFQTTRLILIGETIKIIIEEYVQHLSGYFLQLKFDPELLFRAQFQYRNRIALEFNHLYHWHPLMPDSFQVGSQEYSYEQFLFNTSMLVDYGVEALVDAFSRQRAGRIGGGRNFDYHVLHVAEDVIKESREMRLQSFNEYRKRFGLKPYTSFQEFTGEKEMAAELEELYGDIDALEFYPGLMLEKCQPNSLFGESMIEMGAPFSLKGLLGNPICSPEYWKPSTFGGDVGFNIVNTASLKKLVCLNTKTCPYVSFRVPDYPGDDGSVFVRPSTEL
Experimental: (1) COX-1 activity assay: 2 hours after intraperitoneal injection of calcium ionophore A23187 (50 mg/kg) to rats, each of the compounds a, b, c, d, e and f was orally administered (gavage) to three rats at a dose of 1, 3 and 9 mg/kg/day, respectively; the intermediate I was orally administered as a control drug to three rats at a dose of 0.5 mg/kg; and additional three rats were only administered with COX-1 activator, the calcium ionophore A23187, and were not administered with the compounds of the present invention. 6 hours after the compound of the present invention was administered, the animals were sacrificed, gastric mucosal tissue and myocardial tissue were collected, homogenized, and subjected to high-speed centrifugation (12,000 rpm), and the supernatant was collected for use. The amount of thromboxane B2 was measured using an enzyme-linked immunosorbent assay (EIA) kit (operated in accordance with the instructions provided by the manufacturer) and converted to COX1 activity.
as §1

SW480 cells = test: Measurement of cellular uptake of compounds (HPLC of intermediate I); type: in vitro ADME; settings: 10 μM
gastric mucosa = test: Ulcer induction in rats after gavage (lesions of the gastric mucosa); type: in vivo
HT-29 cells = test: HT-29 transplanted tumors in nude mice, compound a in combination with doxorubicin; type: in vivo; settings: Doxorubicin 2 mg/kg/week i.p. or compound a 3 mg/kg/day gavage, 4 weeks
Experimental: Compound a was administered by gavage once a day for 4 weeks continuously; Doxorubicin was injected intraperitoneally once a week for 4 weeks. Body weight and tumor volume of animals were measured and calculated according to Example 9.

NCCCNCCSP(=O)(O)O [amifostine, reference compound]
effect on tumor / on sensitivity of tumor to doxorubicin [1]: significantly interferes with the inhibitory effect of doxorubicin on the tumor | protection of normal tissue and cells from doxorubicin ([1]; with doxorubicin): effectively protects the normal tissue | protective effect on leukocytes at the early stage of simulated chemotherapy (peripheral leukocytes): slight better than that of the compounds a and b | number of survived mice (mice (C57BL/6J)): 10 mice | survival rate (mice (C57BL/6J)): 62.5%

N.N.[Cl][Pt][Cl] [cisplatin, reference compound]
inhibitory effect on the tumor (A549 cells): only mild inhibitory effect

COc1c(O)c(C)c(CCCCCCCCCCOC(=O)CC2=C(C)C(=Cc3ccc([S+](C)[O-])cc3)c3cc(F)ccc32)c(O)c1OC (stereo not shown) [compound d]
inhibition against COX-2 (COX-2): weaker than those of compounds a and b | reduction of inhibition against COX-1 in gastric mucosal tissue compared with intermediate I (COX-1 in gastric mucosa): ~700 fold | effect of inhibiting COX-1 in gastric mucosa (COX-1 in gastric mucosa): almost lose the effect of inhibiting COX-1 in gastric mucosa | number of survived mice (mice (C57BL/6J)): 11 mice | survival rate (mice (C57BL/6J)): 68.75%

COc1ccc2c(c1)c(CC(=O)O)c(C)n2C(=O)c1ccc(Cl)cc1 [intermediate I, reference compound]
effect on tumor / on sensitivity of tumor to doxorubicin [1]: can also enhance the sensitivity of the tumor to Doxorubicin | death of animals during treatment [1]: die of gastrointestinal bleeding | uptake by cells (SW480 cells): difficult to be efficiently taken up by the cells | prevalence of ulcer (gastric mucosa; gavage three times, 10 μM): 0/6 | prevalence of ulcer (gastric mucosa; gavage three times, 30 μM): 2/6 | prevalence of ulcer (gastric mucosa; gavage three times, 90 μM): 6/6 | Ulcer index (gastric mucosa; gavage three times, Dose 90 μM/kg, 12 hours after last gavage): 72.8 ± 6.82 | ulcer at high concentration (gastric mucosa; gavage, high concentration (90 μM)): very serious ulcer

COC1=C(OC)C(=O)C(CCCCCCCCCCOC(=O)CC2=C(C)C(=Cc3ccc([S+](C)[O-])cc3)c3cc(F)ccc32)=C(C)C1=O (stereo not shown) [compound c]
inhibition against COX-2 (COX-2): weaker than those of compounds a and b | reduction of inhibition against COX-1 in gastric mucosal tissue compared with intermediate I (COX-1 in gastric mucosa): ~700 fold | effect of inhibiting COX-1 in gastric mucosa (COX-1 in gastric mucosa): almost lose the effect of inhibiting COX-1 in gastric mucosa

COc1cccc2c1C(=O)c1c(O)c3c(c(O)c1C2=O)C[C@@](O)(C(=O)CO)C[C@@H]3O[C@H]1C[C@H](N)[C@H](O)[C@H](C)O1 [Doxorubicin]
effect on tumor / on sensitivity of tumor to doxorubicin [1]: mild inhibitory effect | death of animals during treatment [1]: three | inhibition of the tumor, administered alone (HT-29 cells): only slightly inhibited

COC1=C(OC)C(=O)C(COC(=O)Cc2c(C)n(C(=O)c3ccc(Cl)cc3)c3cc(OC)ccc23)=C(C)C1=O [compound f]
inhibition against COX-2 (COX-2): weaker than those of compounds a and b | reduction of inhibition against COX-1 in gastric mucosal tissue compared with intermediate I (COX-1 in gastric mucosa): ~700 fold | effect of inhibiting COX-1 in gastric mucosa (COX-1 in gastric mucosa): almost lose the effect of inhibiting COX-1 in gastric mucosa
